Patent US20200138855A1, “NOVEL ANTINEOPLASTIC DRUG BASED ON SPECIFICITY OF CANCER-CELL METABOLISM” (priority 2017, published 2020)
Structures can show the parent of a compound that is named as a salt.

Columns and labels:
[1] = tested on: recurrent pancreatic cancer (pancreatic body cancer) (Stage IVa); assay: Example 2: case of recurrent pancreatic cancer (pancreatic body cancer); format: in vivo, human
Source text: Patient with recurrent pancreatic cancer (pancreatic body cancer) (Stage IVa)
The patient also had diabetes.

[2] = tested on: colorectal cancer cells having a mutation in KRAS gene and BRAF gene; settings: contact with high-concentration vitamin C; cited from earlier work
[3] = tested on: human lung cancer cells; settings: pHi of human lung cancer cells rises from 7.0 to 7.4; cited from earlier work
[4] = tested on: pancreatic cancer; settings: diabetic patients taking metformin versus those taking no metformin; cited from earlier work

## Nc1ccn([C@@H]2O[C@H](CO)[C@@H](O)C2(F)F)c(=O)n1 [Gemzar, gemcitabine]
[1]; Gemzar 800 mg/m^2 every other week alone (Oct-Dec 2016), combination from mid February 2017 (NaHCO3 3 g/day, vitamin C 25 g/day once a week, metformin hydrochloride 250 mg/day)
  level of tumor marker (CA19-9): significantly increased
[1]; middle of December 2016, Gemzar 800 mg/m^2 every other week alone
  MRI inspection: suspected to have peritoneal dissemination

## O=C1O[C@H]([C@@H](O)CO)C(O)=C1O [vitamin C, L-ascorbic acid]
[2]
  effect on the cells: killed

## COc1cccc2c1C(=O)c1c(O)c3c(c(O)c1C2=O)C[C@@](O)(C(=O)CO)C[C@@H]3O[C@H]1C[C@H](N)[C@H](O)[C@H](C)O1 [doxorubicin hydrochloride]
[3]
  increase of resistance to the anti-cancer agent: 2,000 times

## CN(C)C(=N)NC(=N)N [metformin]
[4]
  reduction of risk of development of pancreatic cancer: 62%
